From patent US10532053B2, “Histone deacetylase inhibitor, and preparation method and use thereof” (GUANGDONG ZHONGSHENG PHARMACEUTICAL CO., LTD, priority 2015, dated 2020)

Tested on: MV4-11 cells
Assay: Therapeutic effect on the MV4-11 acute myeloid leukemia model
Format: in vivo, NOD/SCID mice
Details: MV4-11 model, 50 mg/kg intravenously once every other day, 12 times

COc1ccc(N(C)c2nc(C)nc3ccccc23)cc1OCCCC(=O)NO [III-2, N-hydroxy-4-(2-methoxy-5-(methyl(2-methyl-4-quinazolinyl)amino)phenoxy) butanamide]
activity compared with positive control SAHA: superior to that of the positive control group SAHA | tumor growth (compared with blank control, P<0.01): significantly inhibited tumor growth
